# Experimental data as given in patent US10071968B2 (priority 2014, dated 2018).
# pKi: −log10 of the molar value.
# Biological target: human σ1 receptor (Homo sapiens, UniProt Q99720)
# Test: Human σ1 receptor radioligand assay ([3H](+)-pentazocine, transfected HEK-293 membranes)
# Format: binding
# Set-up: μ and σ1 dual binding: key to the marks not given beside the values
# Conditions: one combined class for Ki-σ1 (A1) and Ki-μ (human μ-opioid receptor, A2)
# Protocol: To investigate binding properties of test compounds to human σ1 receptor, transfected HEK-293 membranes and [^3H](+)-pentazocine (Perkin Elmer, NET-1056), as the radioligand, were used. The assay was carried out with 7 μg of membrane suspension, 5 nM of [^3H](+)-pentazocine in either absence or presence of either buffer or 10 μM Haloperidol for total and non-specific binding, respectively. Binding buffer contained Tris-HCl 50 mM at pH 8. Plates were incubated at 37° C. for 120 minutes. After the incubation period, the reaction mix was then transferred to MultiScreen HTS, FC plates (Millipore), filtered and plates were washed 3 times with ice-cold 10 mM Tris-HCL (pH7.4). Filters were dried and counted at approximately 40% efficiency in a MicroBeta scintillation counter (Perkin-Elmer) using EcoScint liquid scintillation cocktail
# human σ1 receptor, sequence (Q99720 whole entry): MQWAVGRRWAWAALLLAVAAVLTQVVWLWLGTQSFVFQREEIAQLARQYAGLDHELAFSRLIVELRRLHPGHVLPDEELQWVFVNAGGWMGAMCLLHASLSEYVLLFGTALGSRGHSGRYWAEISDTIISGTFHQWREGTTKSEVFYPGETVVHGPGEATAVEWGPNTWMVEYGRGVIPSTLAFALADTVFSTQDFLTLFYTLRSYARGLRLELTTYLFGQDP
row,Structure (SMILES),μ and σ1 dual binding
1,"COc1ccccc1C(OCCN(C)Cc1cccc(F)c1)c1ccnn1C (stereo not shown) [Example 48, N-(3-fluorobenzyl)-2-((2-methoxyphenyl)(1-methyl-1H-pyrazol-5-yl)methoxy)-N-methylethanamine]",++
2,"CC(C)N(CCOC(c1ccccc1)c1ccnn1C)Cc1cccc(F)c1 (stereo not shown) [Example 29, N-(3-fluorobenzyl)-N-(2-((1-methyl-1H-pyrazol-5-yl)(phenyl)methoxy)ethyl)propan-2-amine]",++
3,"CN(CCO[C@H](c1ccccc1)c1ccnn1C)Cc1ccccc1 [Example 9, (R)-N-benzyl-N-methyl-2-((1-methyl-1H-pyrazol-5-yl)(phenyl)methoxy)ethanamine]",++
4,"Cc1ccsc1[C@@H](OCCN(C)Cc1ccccc1)c1ccnn1C [Example 30, (S)-N-benzyl-N-methyl-2-((1-methyl-1H-pyrazol-5-yl)(3-methylthiophen-2-yl)methoxy)ethanamine]",++
5,"CN(CCOC(c1cncs1)c1ccnn1C)Cc1cccc(F)c1 (stereo not shown) [Example 49, N-(3-fluorobenzyl)-N-methyl-2-((1-methyl-1H-pyrazol-5-yl)(thiazol-5-yl)methoxy)ethanamine]",++
6,"COc1ccccc1C(OCCN(C)Cc1ccccc1)c1ccnn1C (stereo not shown) [Example 39, N-benzyl-2-((2-methoxyphenyl)(1-methyl-1H-pyrazol-5-yl)methoxy)-N-methylethanamine]",++
7,"CN(CCOC(c1ccccc1)c1ccnn1C)Cc1ccc(F)cc1 (stereo not shown) [Example 8, N-(4-fluorobenzyl)-N-methyl-2-((1-methyl-1H-pyrazol-5-yl)(phenyl)methoxy)ethanamine]",++
8,"CN(CCO[C@H](c1ccccc1)c1ccnn1C)Cc1ccc(F)cc1 [Example 10, (R)-N-(4-fluorobenzyl)-N-methyl-2-((1-methyl-1H-pyrazol-5-yl)(phenyl)methoxy)ethanamine]",++
9,"CN(CCO[C@H](c1ccccc1)c1ccnn1C)CCc1ccccc1 [Example 11, (R)-N-methyl-2-((1-methyl-1H-pyrazol-5-yl)(phenyl)methoxy)-N-phenethylethanamine]",++
10,"CC(c1ccccc1)N(C)CCOC(c1ccccc1)c1ccnn1C (stereo not shown) [Example 16, N-methyl-2-((1-methyl-1H-pyrazol-5-yl)(phenyl)methoxy)-N-(1-phenylethyl)ethanamine]",++
11,"CC(C)N(CCOC(c1ccccc1)c1ccnn1C)Cc1ccccc1 (stereo not shown) [Example 27, N-benzyl-N-(2-((1-methyl-1H-pyrazol-5-yl)(phenyl)methoxy)ethyl)propan-2-amine]",++
12,"COc1cccc(CN(C)CCOC(c2ccccc2)c2ccnn2C)c1 (stereo not shown) [Example 23, N-(3-methoxybenzyl)-N-methyl-2-((1-methyl-1H-pyrazol-5-yl)(phenyl)methoxy)ethanamine]",++
13,"CN(CCOC(c1cccnc1)c1ccnn1C)Cc1cccc(F)c1 (stereo not shown) [Example 46, N-(3-fluorobenzyl)-N-methyl-2-((1-methyl-1H-pyrazol-5-yl)(pyridin-3-yl)methoxy)ethanamine]",++
14,"CN(CCOC(c1ccc(O)cc1)c1ccnn1C)Cc1ccccc1 (stereo not shown) [Example 51, 4-((2-(benzyl(methyl)amino)ethoxy)(1-methyl-1H-pyrazol-5-yl)methyl)phenol]",++

# Same assay, conditions: one combined class for Ki-σ1 (A1) and Ki-μ (human μ-opioid receptor, A2); read-out: μ and σ1 dual binding
row,Structure (SMILES),pKi
1,"CN(CCOC(c1ccccc1)c1ccnn1C)CCc1ccccc1 (stereo not shown) [Example 7, N-methyl-2-((1-methyl-1H-pyrazol-5-yl)(phenyl)methoxy)-N-phenethylethanamine]",> 6.30
2,"CN(CC[S+]([O-])C(c1ccccc1)c1ccnn1C)Cc1ccccc1 (stereo not shown) [Example 34, N-Benzyl-N-methyl-2-((1-methyl-1H-pyrazol-5-yl)(phenyl)methylsulfinyl)ethanamine]",< 6.30
3,"CN(CCOC(c1ccccc1)c1ccnn1C)Cc1ccc(C(F)(F)F)nc1 (stereo not shown) [Example 3, N-methyl-2-((1-methyl-1H-pyrazol-5-yl)(phenyl)methoxy)-N-((6-(trifluoromethyl)pyridin-3-yl)methyl)ethanamine]",< 6.30
4,"CN(CCOC(c1ccccn1)c1ccnn1C)Cc1ccccc1 (stereo not shown) [Example 40, N-benzyl-N-methyl-2-((1-methyl-1H-pyrazol-5-yl)(pyridin-2-yl)methoxy)ethanamine]",< 6.30
5,"CN(CCSC(c1ccccc1)c1ccnn1C)Cc1ccccc1 (stereo not shown) [Example 33, N-benzyl-N-methyl-2-((1-methyl-1H-pyrazol-5-yl)(phenyl)methylthio)ethanamine]",> 6.30
6,"CN(CCOC(c1cncs1)c1ccnn1C)Cc1ccccc1 (stereo not shown) [Example 41, N-benzyl-N-methyl-2-((1-methyl-1H-pyrazol-5-yl)(thiazol-5-yl)methoxy)ethanamine]",< 6.30
7,"CN(CCOC(c1ccccc1O)c1ccnn1C)Cc1ccccc1 (stereo not shown) [Example 52, 2-((2-(benzyl(methyl)amino)ethoxy)(1-methyl-1H-pyrazol-5-yl)methyl)phenol]",> 6.30
8,"CN(CCO[C@@H](c1ccccc1)c1ccnn1C)CCc1ccccc1 [Example 19, (S)-N-methyl-2-((1-methyl-1H-pyrazol-5-yl)(phenyl)methoxy)-N-phenethylethanamine]",> 6.30
